In one assay the target is T1, Endothelin-1 receptor (Homo sapiens, UniProt P25101).
T1 sequence (P25101 whole entry): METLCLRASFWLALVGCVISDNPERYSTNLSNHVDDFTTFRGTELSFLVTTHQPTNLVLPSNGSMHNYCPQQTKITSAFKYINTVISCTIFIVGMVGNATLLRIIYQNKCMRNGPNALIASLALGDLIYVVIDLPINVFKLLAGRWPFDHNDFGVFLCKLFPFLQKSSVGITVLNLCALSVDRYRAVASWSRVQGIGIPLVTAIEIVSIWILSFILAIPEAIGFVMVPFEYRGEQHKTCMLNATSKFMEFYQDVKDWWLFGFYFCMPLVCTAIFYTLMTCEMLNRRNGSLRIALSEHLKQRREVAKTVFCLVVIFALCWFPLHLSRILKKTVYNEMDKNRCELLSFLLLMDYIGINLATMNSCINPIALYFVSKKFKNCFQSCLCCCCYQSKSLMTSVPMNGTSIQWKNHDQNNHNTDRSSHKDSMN
Put plainly: Binding affinity in LtK cells stably transfected with human endothelin A (ETA) receptor. It counts as cell-based.

Assay [1] deals with T2, Endothelin receptor type B (Homo sapiens, UniProt P24530).
T2 sequence (P24530 whole entry): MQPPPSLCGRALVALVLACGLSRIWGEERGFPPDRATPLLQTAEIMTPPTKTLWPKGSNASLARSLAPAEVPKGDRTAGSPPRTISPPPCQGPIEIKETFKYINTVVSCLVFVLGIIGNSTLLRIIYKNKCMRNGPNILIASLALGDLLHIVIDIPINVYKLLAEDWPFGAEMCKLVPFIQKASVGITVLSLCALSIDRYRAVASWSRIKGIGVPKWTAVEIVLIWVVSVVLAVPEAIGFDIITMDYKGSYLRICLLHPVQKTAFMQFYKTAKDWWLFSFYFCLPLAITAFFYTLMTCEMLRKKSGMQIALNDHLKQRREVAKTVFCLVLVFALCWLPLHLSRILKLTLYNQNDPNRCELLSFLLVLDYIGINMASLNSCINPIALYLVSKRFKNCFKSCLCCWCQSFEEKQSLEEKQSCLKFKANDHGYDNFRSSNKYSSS
Description: Binding affinity in Chinese hamster ovary (CHO) cells stably transfected with human endothelin B (ETB) receptor. The format is cell-based.

Starred links: 1 amine or outer side, 2 acyl side, 3 side chain; linkers in the order of their positions; H or OH if unused. Non-standard residues stand in square brackets, D forms with d. Residues, ends and D or L forms follow the SMILES beside them. X1 = O=C([C@@H](N[*:1])C1c2ccccc2CCc2ccccc21)[*:2]

For orientation: IC50 means the concentration that gives 50% inhibition. A low value points to greater potency in that assay.

Regarding `CC(=O)N[C@H](C(=O)N[C@@H](Cc1ccccc1)C(=O)N[C@@H](CC(N)=O)C(=O)N[C@@H](Cc1ccc(O)cc1)C(=O)N[C@@H](Cc1ccc(O)cc1)C(=O)N[C@@H](Cc1c[nH]c2ccccc12)C(=O)O)C1c2ccccc2CCc2ccccc21` (Ac-[X1]FNYYW-OH), the results for the IC50 (on Endothelin-1 receptor; in assay [1]) were 1.9 µM and 4.3 µM, respectively.
For the compound `CC(=O)N[C@H](Cc1c[nH]c2ccccc12)C(=O)N[C@@H](Cc1ccccc1)C(=O)N[C@@H](Cc1ccccc1)C(=O)N[C@@H](CC(N)=O)C(=O)N[C@@H](Cc1ccc(O)cc1)C(=O)N[C@@H](Cc1ccc(O)cc1)C(=O)N[C@@H](Cc1c[nH]c2ccccc12)C(=O)O`, the IC50 at Endothelin-1 receptor came out at 8.1 µM; in assay [1], 14 µM.
As for `C[C@@H]1NC(=O)[C@H]([C@@H](C)O)NC(=O)CNC(=O)[C@H](Cc2c[nH]cn2)NC(=O)[C@H](Cc2c[nH]c3ccccc23)NC(=O)[C@H](CC(N)=O)NC(=O)CNC(=O)C[C@@H](C(=O)N[C@@H](Cc2c[nH]c3ccccc23)C(=O)N[C@@H](Cc2ccccc2)C(=O)N[C@@H](Cc2ccccc2)C(=O)N[C@@H](CC(N)=O)C(=O)N[C@@H](Cc2ccc(O)cc2)C(=O)N[C@@H](Cc2ccc(O)cc2)C(=O)N[C@@H](Cc2c[nH]c3ccccc23)C(=O)O)NC(=O)[C@@H]2CCCN2C1=O` (stereo in doubt; 2), the IC50 on Endothelin-1 receptor was determined as 7.8 µM; in assay [1] it was 6.5 µM.
The matching figures for `C[C@@H]1NC(=O)[C@H]([C@@H](C)O)NC(=O)CNC(=O)[C@H](Cc2c[nH]cn2)NC(=O)[C@H](Cc2c[nH]c3ccccc23)NC(=O)[C@H](CC(N)=O)NC(=O)CNC(=O)C[C@@H](C(=O)N[C@@H](Cc2c[nH]c3ccccc23)C(=O)N[C@@H](Cc2ccccc2)C(=O)N[C@@H](Cc2ccccc2)C(=O)N[C@@H](CC(N)=O)C(=O)N[C@@H](Cc2ccc(O)cc2)C(=O)N[C@@H](Cc2ccc(O)cc2)C(=O)N[C@@H](Cc2c[nH]c3ccccc23)C(=O)O)NC(=O)[C@@H]2CCCN2C1=O` (stereo in doubt; 1): above 5 µM and 0.01 µM.
On the same counts, the results for `NC(=O)C[C@H](NC(=O)[C@H](Cc1ccccc1)NC(=O)[C@H](Cc1ccccc1)NC(=O)[C@@H](N)Cc1c[nH]c2ccccc12)C(=O)N[C@@H](Cc1ccc(O)cc1)C(=O)N[C@@H](Cc1ccc(O)cc1)C(=O)N[C@@H](Cc1c[nH]c2ccccc12)C(=O)O` (H-WFFNYYW-OH) are 2.4 µM and 15 µM.
Take `NC(=O)C[C@H](NC(=O)[C@H](Cc1ccccc1)NC(=O)[C@@H](N)Cc1ccccc1)C(=O)N[C@@H](Cc1ccc(O)cc1)C(=O)N[C@@H](Cc1ccc(O)cc1)C(=O)N[C@@H](Cc1c[nH]c2ccccc12)C(=O)O` (H-FFNYYW-OH): the IC50 (at Endothelin-1 receptor; in assay [1]) was above 25 µM each time.
For `C[C@H](NC(=O)[C@@H](NC(=O)CNC(=O)[C@H](Cc1c[nH]cn1)NC(=O)[C@@H](N)Cc1c[nH]c2ccccc12)[C@@H](C)O)C(=O)N1CCC[C@H]1C(=O)N[C@@H](CC(=O)O)C(=O)N[C@@H](Cc1c[nH]c2ccccc12)C(=O)N[C@@H](Cc1ccccc1)C(=O)N[C@@H](Cc1ccccc1)C(=O)N[C@@H](CC(N)=O)C(=O)N[C@@H](Cc1ccc(O)cc1)C(=O)N[C@@H](Cc1ccc(O)cc1)C(=O)N[C@@H](Cc1c[nH]c2ccccc12)C(=O)O` (H-WHGTAPDWFFNYYW-OH), the IC50 (at Endothelin-1 receptor; in assay [1]) was above 2.5 µM throughout.
Take `C[C@H](NC(=O)[C@@H](NC(=O)CNC(=O)[C@H](Cc1c[nH]cn1)NC(=O)[C@H](Cc1c[nH]c2ccccc12)NC(=O)[C@H](CC(N)=O)NC(=O)CN)[C@@H](C)O)C(=O)N1CCC[C@H]1C(=O)N[C@@H](CC(=O)O)C(=O)N[C@@H](Cc1c[nH]c2ccccc12)C(=O)N[C@@H](Cc1ccccc1)C(=O)N[C@@H](Cc1ccccc1)C(=O)N[C@@H](CC(N)=O)C(=O)N[C@@H](Cc1ccc(O)cc1)C(=O)N[C@@H](Cc1ccc(O)cc1)C(=O)N[C@@H](Cc1c[nH]c2ccccc12)C(=O)O`: the IC50 (at Endothelin-1 receptor; in assay [1]) was above 2.5 µM each time.
With `NC(=O)C[C@H](NC(=O)[C@H](Cc1ccccc1)NC(=O)[C@@H](N)C1c2ccccc2CCc2ccccc21)C(=O)N[C@@H](Cc1ccc(O)cc1)C(=O)N[C@@H](Cc1ccc(O)cc1)C(=O)N[C@@H](Cc1c[nH]c2ccccc12)C(=O)O` (H-[X1]FNYYW-OH), the results for the IC50 (at Endothelin-1 receptor; in assay [1]) were 9.5 µM and 13 µM, respectively.
On the same counts, the results for `CC(=O)N[C@@H](Cc1c[nH]c2ccccc12)C(=O)N[C@@H](Cc1ccccc1)C(=O)N[C@@H](Cc1ccccc1)C(=O)N[C@@H](CC(N)=O)C(=O)N[C@@H](Cc1ccc(O)cc1)C(=O)N[C@@H](Cc1ccc(O)cc1)C(=O)N[C@@H](Cc1c[nH]c2ccccc12)C(=O)O` are 0.25 µM and 7.6 µM.

The values are drawn from ChEMBL document CHEMBL1152094, “Res-701-1, synthesis and a reevaluation of its effects on the endothelin receptors” (Bioorg Med Chem Lett, 1995).
